Source: publication PMC2948407 (Journal of the American Chemical Society, 2010)
pKd: −log10 of the molar value.

Molecular target: T1, HasAp (Pseudomonas aeruginosa, UniProt O69756, H32A)
T1 sequence (O69756 1-184 H32A): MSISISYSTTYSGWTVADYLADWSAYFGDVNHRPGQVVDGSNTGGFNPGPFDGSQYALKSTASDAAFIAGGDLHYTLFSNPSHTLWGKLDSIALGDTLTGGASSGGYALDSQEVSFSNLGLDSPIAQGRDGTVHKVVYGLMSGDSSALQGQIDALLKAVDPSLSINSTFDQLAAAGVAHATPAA
Test: UV-vis titration
Type: binding

c1c[nH]cn1 [imidazole]
pKd: 2.33
